Legend:
[1] = target: PIM2 (human) (UniProt Q9P1W9); assay: SelectScreen, TR FRET
[2] = target: PIM1 (human) (UniProt P11309); assay: SelectScreen, TR FRET
[3] = target: CAMKK1 (human) (UniProt Q8N5S9); assay: KINOMEscan competition binding; conditions: compound 10.0 µM
[4] = target: ROCK2 (human) (UniProt O75116); assay: KINOMEscan competition binding; conditions: compound 10.0 µM
[5] = target: RPS6KA4 KD2 (human) (UniProt O75676); assay: KINOMEscan competition binding; conditions: compound 10.0 µM
[6] = target: MAP3K7 (human) (UniProt O43318); assay: KINOMEscan competition binding; conditions: compound 10.0 µM
[7] = target: MAP2K2 (human) (UniProt P36507); assay: KINOMEscan competition binding; conditions: compound 10.0 µM
[8] = target: MKNK2 (human) (UniProt Q9HBH9); assay: KINOMEscan competition binding; conditions: compound 10.0 µM
[9] = target: TLK1 (human) (UniProt Q9UKI8); assay: KINOMEscan competition binding; conditions: compound 10.0 µM
[10] = target: RPS6KA2 KD2 (human) (UniProt Q15349); assay: KINOMEscan competition binding; conditions: compound 10.0 µM
[11] = target: BMPR1B (human) (UniProt O00238); assay: KINOMEscan competition binding; conditions: compound 10.0 µM
[12] = target: CLK4 (human) (UniProt Q9HAZ1); assay: KINOMEscan competition binding; conditions: compound 10.0 µM
[13] = target: DAPK3 (human) (UniProt O43293); assay: KINOMEscan competition binding; conditions: compound 10.0 µM
[14] = target: RIPK4 (human) (UniProt P57078); assay: KINOMEscan competition binding; conditions: compound 10.0 µM
[15] = target: MYLK (human) (UniProt Q15746); assay: KINOMEscan competition binding; conditions: compound 10.0 µM
[16] = target: RPS6KA1 KD2 (human) (UniProt Q15418); assay: KINOMEscan competition binding; conditions: compound 10.0 µM
[17] = target: STK17A (human) (UniProt Q9UEE5); assay: KINOMEscan competition binding; conditions: compound 10.0 µM
[18] = target: MAPK15 (human) (UniProt Q8TD08); assay: KINOMEscan competition binding; conditions: compound 10.0 µM
[19] = target: TYK2 JH2 pseudokinase (human) (UniProt P29597); assay: KINOMEscan competition binding; conditions: compound 10.0 µM
[20] = target: CDK16 (human) (UniProt Q00536); assay: KINOMEscan competition binding; conditions: compound 10.0 µM
[21] = target: TAOK3 (human) (UniProt Q9H2K8); assay: KINOMEscan competition binding; conditions: compound 10.0 µM
[22] = target: CSNK2A1 (human) (UniProt P68400); assay: KINOMEscan competition binding; conditions: compound 10.0 µM
[23] = target: DAPK1 (human) (UniProt P53355); assay: KINOMEscan competition binding; conditions: compound 10.0 µM
[24] = target: MAPKAPK5 (human) (UniProt Q8IW41); assay: KINOMEscan competition binding; conditions: compound 10.0 µM
[25] = target: PIM3 (human) (UniProt Q86V86); assay: KINOMEscan competition binding; conditions: compound 10.0 µM
[26] = target: STK17B (human) (UniProt O94768); assay: KINOMEscan competition binding; conditions: compound 10.0 µM
[27] = target: CSNK2A2 (human) (UniProt P19784); assay: KINOMEscan competition binding; conditions: compound 10.0 µM
[28] = target: TAOK1 (human) (UniProt Q7L7X3); assay: KINOMEscan competition binding; conditions: compound 10.0 µM
[29] = target: PIM2 (human) (UniProt Q9P1W9); assay: KINOMEscan competition binding; conditions: compound 10.0 µM
[30] = target: PIP4K2B (human) (UniProt P78356); assay: KINOMEscan competition binding; conditions: compound 10.0 µM
[31] = target: PLK4 (human) (UniProt O00444); assay: KINOMEscan competition binding; conditions: compound 10.0 µM
[32] = target: RPS6KA6 KD2 (human) (UniProt Q9UK32); assay: KINOMEscan competition binding; conditions: compound 10.0 µM
[33] = target: JAK1 JH2 pseudokinase (human) (UniProt P23458); assay: KINOMEscan competition binding; conditions: compound 10.0 µM
[34] = target: GAK (human) (UniProt O14976); assay: KINOMEscan competition binding; conditions: compound 10.0 µM
[35] = target: CLK3 (human) (UniProt P49761); assay: KINOMEscan competition binding; conditions: compound 10.0 µM
[36] = target: HIPK1 (human) (UniProt Q86Z02); assay: KINOMEscan competition binding; conditions: compound 10.0 µM
[37] = target: STK24 (human) (UniProt Q9Y6E0); assay: KINOMEscan competition binding; conditions: compound 10.0 µM
[38] = target: PIM1 (human) (UniProt P11309); assay: KINOMEscan competition binding; conditions: compound 10.0 µM
[39] = target: RIOK2 (human) (UniProt Q9BVS4); assay: KINOMEscan competition binding; conditions: compound 10.0 µM
[40] = target: MYLK3 (human) (UniProt Q32MK0); assay: KINOMEscan competition binding; conditions: compound 10.0 µM
[41] = target: PIK3CG (human) (UniProt P48736); assay: KINOMEscan competition binding; conditions: compound 10.0 µM
[42] = target: DAPK2 (human) (UniProt Q9UIK4); assay: KINOMEscan competition binding; conditions: compound 10.0 µM
[43] = target: CDK7 (human) (UniProt P50613); assay: KINOMEscan competition binding; conditions: compound 10.0 µM
[44] = target: CLK1 (human) (UniProt P49759); assay: KINOMEscan competition binding; conditions: compound 10.0 µM
[45] = target: CLK2 (human) (UniProt P49760); assay: KINOMEscan competition binding; conditions: compound 10.0 µM
[46] = target: MAP2K3 (human) (UniProt P46734); assay: KINOMEscan competition binding; conditions: compound 10.0 µM
[47] = target: AAK1 (human) (UniProt Q2M2I8); assay: KINOMEscan competition binding; conditions: compound 10.0 µM

Sequence of PIM1 (human) (P11309 whole entry, looked up): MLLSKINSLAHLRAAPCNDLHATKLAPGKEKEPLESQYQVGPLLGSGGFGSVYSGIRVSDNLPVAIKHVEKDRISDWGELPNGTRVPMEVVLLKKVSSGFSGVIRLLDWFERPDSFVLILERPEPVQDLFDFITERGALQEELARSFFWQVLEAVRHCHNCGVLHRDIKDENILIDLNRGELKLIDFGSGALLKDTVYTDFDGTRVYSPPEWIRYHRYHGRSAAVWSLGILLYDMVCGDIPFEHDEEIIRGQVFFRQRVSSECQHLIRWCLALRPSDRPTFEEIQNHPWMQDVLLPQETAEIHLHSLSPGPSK
Sequence of PIM2 (human) (Q9P1W9 whole entry, looked up): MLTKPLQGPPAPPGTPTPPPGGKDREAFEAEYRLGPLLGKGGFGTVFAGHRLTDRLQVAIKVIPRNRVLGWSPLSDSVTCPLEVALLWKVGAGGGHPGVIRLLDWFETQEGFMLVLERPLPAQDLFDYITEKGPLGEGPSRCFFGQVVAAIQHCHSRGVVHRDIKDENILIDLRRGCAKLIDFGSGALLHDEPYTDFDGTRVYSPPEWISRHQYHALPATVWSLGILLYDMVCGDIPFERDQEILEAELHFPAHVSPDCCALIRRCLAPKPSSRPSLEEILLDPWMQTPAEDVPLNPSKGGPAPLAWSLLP
Sequence of CLK2 (human) (P49760 whole entry, looked up): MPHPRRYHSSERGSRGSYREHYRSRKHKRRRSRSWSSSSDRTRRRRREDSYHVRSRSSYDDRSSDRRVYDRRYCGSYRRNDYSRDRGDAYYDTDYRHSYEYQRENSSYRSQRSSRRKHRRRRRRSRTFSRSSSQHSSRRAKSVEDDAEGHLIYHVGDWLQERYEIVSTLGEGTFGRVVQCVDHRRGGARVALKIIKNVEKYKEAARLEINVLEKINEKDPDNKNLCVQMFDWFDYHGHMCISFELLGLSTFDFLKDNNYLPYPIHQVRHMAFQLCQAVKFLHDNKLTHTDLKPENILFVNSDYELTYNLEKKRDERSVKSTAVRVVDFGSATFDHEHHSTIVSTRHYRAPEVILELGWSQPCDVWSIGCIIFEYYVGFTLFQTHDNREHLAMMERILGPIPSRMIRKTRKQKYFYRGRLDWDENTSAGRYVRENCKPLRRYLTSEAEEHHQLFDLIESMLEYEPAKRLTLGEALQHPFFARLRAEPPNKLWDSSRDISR
Sequence of STK17A (human) (Q9UEE5 whole entry, looked up): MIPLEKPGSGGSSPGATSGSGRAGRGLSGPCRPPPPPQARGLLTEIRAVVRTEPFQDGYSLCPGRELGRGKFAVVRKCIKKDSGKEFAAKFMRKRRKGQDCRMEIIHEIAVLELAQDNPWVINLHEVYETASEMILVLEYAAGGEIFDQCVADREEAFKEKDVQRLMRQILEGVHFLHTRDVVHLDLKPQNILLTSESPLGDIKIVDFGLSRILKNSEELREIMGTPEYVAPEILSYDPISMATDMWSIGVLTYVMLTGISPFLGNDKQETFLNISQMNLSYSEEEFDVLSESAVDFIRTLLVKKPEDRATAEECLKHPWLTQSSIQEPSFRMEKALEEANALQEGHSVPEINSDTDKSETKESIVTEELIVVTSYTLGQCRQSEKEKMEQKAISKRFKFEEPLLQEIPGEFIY
Sequence of CDK16 (human) (Q00536 whole entry, looked up): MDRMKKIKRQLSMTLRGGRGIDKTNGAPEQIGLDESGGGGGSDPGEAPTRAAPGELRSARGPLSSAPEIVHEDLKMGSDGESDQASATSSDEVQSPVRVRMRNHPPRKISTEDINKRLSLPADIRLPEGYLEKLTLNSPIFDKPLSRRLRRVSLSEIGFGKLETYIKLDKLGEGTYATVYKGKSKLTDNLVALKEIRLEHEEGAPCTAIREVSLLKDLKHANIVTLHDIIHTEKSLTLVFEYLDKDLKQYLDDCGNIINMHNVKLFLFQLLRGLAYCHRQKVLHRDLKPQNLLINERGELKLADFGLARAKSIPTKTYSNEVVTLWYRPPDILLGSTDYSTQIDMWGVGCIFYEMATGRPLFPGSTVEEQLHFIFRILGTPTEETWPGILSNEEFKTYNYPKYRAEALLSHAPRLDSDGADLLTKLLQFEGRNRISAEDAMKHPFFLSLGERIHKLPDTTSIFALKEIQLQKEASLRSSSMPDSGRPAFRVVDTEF
Sequence of DAPK2 (human) (Q9UIK4 whole entry, looked up): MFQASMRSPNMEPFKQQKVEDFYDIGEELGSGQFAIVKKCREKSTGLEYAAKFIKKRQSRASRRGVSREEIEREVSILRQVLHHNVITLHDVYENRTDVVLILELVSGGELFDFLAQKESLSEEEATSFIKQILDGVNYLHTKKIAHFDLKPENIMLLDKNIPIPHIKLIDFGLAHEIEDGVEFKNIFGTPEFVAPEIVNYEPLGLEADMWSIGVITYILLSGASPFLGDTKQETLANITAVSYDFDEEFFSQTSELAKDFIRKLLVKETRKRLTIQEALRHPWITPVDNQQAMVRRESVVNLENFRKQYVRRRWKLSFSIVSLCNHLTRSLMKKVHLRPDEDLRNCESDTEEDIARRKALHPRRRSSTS
Sequence of CAMKK1 (human) (Q8N5S9 whole entry, looked up): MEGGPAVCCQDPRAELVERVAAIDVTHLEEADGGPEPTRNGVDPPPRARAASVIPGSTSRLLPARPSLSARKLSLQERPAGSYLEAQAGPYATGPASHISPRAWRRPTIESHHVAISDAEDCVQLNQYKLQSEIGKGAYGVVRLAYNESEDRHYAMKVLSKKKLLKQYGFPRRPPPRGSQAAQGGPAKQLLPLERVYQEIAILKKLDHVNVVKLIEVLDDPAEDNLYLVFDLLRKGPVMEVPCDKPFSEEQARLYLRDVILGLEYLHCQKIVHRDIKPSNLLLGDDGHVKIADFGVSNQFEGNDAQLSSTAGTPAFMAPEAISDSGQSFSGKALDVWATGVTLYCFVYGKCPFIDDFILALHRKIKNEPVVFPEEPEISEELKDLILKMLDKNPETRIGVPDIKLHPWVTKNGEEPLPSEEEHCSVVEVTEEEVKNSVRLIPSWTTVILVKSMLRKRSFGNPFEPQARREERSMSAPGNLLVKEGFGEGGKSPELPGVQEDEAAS
Sequence of CLK3 (human) (P49761 whole entry, looked up): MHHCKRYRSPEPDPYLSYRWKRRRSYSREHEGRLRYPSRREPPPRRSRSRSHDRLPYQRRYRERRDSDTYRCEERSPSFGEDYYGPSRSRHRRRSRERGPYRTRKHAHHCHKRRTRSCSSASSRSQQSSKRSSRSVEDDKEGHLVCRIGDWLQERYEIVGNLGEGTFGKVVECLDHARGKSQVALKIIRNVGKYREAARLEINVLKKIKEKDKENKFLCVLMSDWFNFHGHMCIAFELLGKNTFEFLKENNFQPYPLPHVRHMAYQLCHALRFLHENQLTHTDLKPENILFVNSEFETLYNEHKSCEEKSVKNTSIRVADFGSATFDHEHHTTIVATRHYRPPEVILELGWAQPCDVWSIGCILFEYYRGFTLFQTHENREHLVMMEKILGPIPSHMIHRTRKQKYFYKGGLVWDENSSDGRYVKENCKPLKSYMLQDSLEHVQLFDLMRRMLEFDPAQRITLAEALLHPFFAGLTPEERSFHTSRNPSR
Sequence of ROCK2 (human) (O75116 whole entry, looked up): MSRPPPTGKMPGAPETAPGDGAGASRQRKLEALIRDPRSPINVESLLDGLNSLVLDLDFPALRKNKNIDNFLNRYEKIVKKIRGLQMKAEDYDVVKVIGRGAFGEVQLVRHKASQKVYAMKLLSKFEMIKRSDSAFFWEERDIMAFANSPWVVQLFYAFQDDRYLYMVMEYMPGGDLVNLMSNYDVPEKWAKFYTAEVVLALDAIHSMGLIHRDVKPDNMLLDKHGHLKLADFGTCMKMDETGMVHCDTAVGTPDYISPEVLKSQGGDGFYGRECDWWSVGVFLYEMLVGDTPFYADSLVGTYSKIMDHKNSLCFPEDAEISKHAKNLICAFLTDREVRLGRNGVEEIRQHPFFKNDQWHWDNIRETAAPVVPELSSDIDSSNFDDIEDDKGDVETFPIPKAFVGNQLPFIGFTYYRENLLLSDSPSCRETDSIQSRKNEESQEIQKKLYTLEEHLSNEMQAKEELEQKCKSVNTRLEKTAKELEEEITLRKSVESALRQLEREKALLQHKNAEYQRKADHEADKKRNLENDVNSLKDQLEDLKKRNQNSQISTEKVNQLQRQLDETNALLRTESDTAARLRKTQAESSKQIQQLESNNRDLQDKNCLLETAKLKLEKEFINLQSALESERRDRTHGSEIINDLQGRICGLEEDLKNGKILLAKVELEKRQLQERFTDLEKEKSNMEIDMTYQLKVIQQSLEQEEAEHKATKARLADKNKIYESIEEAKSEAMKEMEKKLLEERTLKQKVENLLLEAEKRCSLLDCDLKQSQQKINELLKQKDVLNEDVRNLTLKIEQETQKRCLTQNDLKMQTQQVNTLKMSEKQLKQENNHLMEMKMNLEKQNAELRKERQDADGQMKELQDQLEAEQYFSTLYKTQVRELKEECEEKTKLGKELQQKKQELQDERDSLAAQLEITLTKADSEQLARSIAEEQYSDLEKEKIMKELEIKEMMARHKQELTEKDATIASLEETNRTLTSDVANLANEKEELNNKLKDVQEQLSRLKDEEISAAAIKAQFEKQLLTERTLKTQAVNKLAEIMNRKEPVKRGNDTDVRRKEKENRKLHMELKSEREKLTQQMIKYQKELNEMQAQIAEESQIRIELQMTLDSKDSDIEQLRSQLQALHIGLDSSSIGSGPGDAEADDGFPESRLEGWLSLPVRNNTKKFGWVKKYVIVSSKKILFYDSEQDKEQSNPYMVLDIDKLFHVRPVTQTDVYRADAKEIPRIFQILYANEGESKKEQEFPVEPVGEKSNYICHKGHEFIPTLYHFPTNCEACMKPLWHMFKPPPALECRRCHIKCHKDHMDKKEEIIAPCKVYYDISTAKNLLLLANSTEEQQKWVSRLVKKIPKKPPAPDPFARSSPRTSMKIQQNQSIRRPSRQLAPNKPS

Structure (SMILES): N=C1NC(=O)/C(=C/c2ccc(-c3ccc(C(=O)Nc4ccc(N5CCNCC5)cc4)cc3O)o2)S1
- IC50 [1]: 144 nM
- IC50 [2]: 128 nM
- kinase still bound, per cent of control [3]: 32%
- kinase still bound, per cent of control [4]: 21%
- kinase still bound, per cent of control [5]: 3.4%
- kinase still bound, per cent of control [6]: 8.6%
- kinase still bound, per cent of control [7]: 33%
- kinase still bound, per cent of control [8]: 27%
- kinase still bound, per cent of control [9]: 14%
- kinase still bound, per cent of control [10]: 25%
- kinase still bound, per cent of control [11]: 19%
- kinase still bound, per cent of control [12]: 5.8%
- kinase still bound, per cent of control [13]: 15%
- kinase still bound, per cent of control [14]: 5.5%
- kinase still bound, per cent of control [15]: 32%
- kinase still bound, per cent of control [16]: 21%
- kinase still bound, per cent of control [17]: 0.1%
- kinase still bound, per cent of control [18]: 0.95%
- kinase still bound, per cent of control [19]: 10%
- kinase still bound, per cent of control [20]: 18%
- kinase still bound, per cent of control [21]: 7.4%
- kinase still bound, per cent of control [22]: 20%
- kinase still bound, per cent of control [23]: 12%
- kinase still bound, per cent of control [24]: 32%
- kinase still bound, per cent of control [25]: 9%
- kinase still bound, per cent of control [26]: 0.6%
- kinase still bound, per cent of control [27]: 19%
- kinase still bound, per cent of control [28]: 5.4%
- kinase still bound, per cent of control [29]: 0.5%
- kinase still bound, per cent of control [30]: 34%
- kinase still bound, per cent of control [31]: 23%
- kinase still bound, per cent of control [32]: 27%
- kinase still bound, per cent of control [33]: 26%
- kinase still bound, per cent of control [34]: 29%
- kinase still bound, per cent of control [35]: 25%
- kinase still bound, per cent of control [36]: 0.65%
- kinase still bound, per cent of control [37]: 25%
- kinase still bound, per cent of control [38]: 5.6%
- kinase still bound, per cent of control [39]: 29%
- kinase still bound, per cent of control [40]: 15%
- kinase still bound, per cent of control [41]: 2.1%
- kinase still bound, per cent of control [42]: 14%
- kinase still bound, per cent of control [43]: 3.2%
- kinase still bound, per cent of control [44]: 2.4%
- kinase still bound, per cent of control [45]: 2%
- kinase still bound, per cent of control [46]: 30%
- kinase still bound, per cent of control [47]: 31%
